US7169818B2, “Lysophosphatidic acid receptor agonists and antagonists” (University of Virginia Patent Foundation, priority 2000, dated 2007)
“Also recorded” adds a separate entry of the source. Blank lines part the entries; values can stand above or below the molecule they belong to.

Columns and labels:
[1] = biological target: human LPA2 (Homo sapiens, UniProt Q9HBW0); test: GTP[γ35S] binding, LPA2-transfected HEK293T cell membranes; format: biochemical; design: expressed in transfected cells; host or cells: HEK293T (transient); conditions: for EC50: agonist activity, read-out: LP A2 EC50
Sequence of human LPA2 (Q9HBW0 whole entry): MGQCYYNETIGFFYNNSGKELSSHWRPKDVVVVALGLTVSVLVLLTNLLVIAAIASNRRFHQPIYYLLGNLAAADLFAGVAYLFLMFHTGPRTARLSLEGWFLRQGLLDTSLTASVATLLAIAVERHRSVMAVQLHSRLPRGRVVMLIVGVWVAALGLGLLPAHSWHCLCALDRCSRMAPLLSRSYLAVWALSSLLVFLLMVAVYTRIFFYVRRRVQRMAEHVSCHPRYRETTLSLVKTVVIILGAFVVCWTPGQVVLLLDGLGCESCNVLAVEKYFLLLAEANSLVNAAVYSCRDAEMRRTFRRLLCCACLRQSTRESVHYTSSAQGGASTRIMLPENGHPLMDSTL
Method: (§1) The appropriate receptor plasmid DNA (encoding mouse LPA1, human LPA2 or human LPA3) was mixed with equal amounts of expression plasmids (pcDNA3) encoding a mutated (C351F) rat Gi2a, cow β1, and γ2 proteins and these DNAs were used to transfect monolayers of HEK293T cells (where ‘T’ indicates expression of the SV-40 virus large T antigen) using the calcium phosphate precipitate method. After about 60 hours, cells were harvested, membranes were prepared, aliquoted and stored at −70° C. until use.
(§2) The GTP[35 γS] assay was performed as described by us previously. Membranes containing 5 ug of protein were incubated in 0.1 ml GTP-binding buffer (in mM: HEPES 50, NaCl 100, MgCl2 10, pH7.5) containing […], […], 0.1 nM GTP[35 γS] (1200 Ci/mmol), and indicated lipid(s) for 30 minutes at 30° C. Samples were analyzed for membrane-bound radionuclide using a Brandel Cell Harvester (Gaithersburg, Md.).
(§3) Membranes prepared from these cells are used to measure GTPγ[^35S] binding as a function of test compound concentration. The resulting dose-response curves provide relative potency (EC50) and efficacy (Emax) for the test compounds.

[2] = biological target: T1, human LPA3 (Homo sapiens, UniProt Q9UBY5); test: GTP[γ35S] binding, LPA3-transfected HEK293T cell membranes; format: biochemical; design: expressed in transfected cells; host or cells: HEK293T (transient); conditions: for EC50: agonist activity, read-out: LP A3 EC50; for LP A3 Emax: efficacy compared to LPA (LPA = 100)
T1 sequence (Q9UBY5 1-353): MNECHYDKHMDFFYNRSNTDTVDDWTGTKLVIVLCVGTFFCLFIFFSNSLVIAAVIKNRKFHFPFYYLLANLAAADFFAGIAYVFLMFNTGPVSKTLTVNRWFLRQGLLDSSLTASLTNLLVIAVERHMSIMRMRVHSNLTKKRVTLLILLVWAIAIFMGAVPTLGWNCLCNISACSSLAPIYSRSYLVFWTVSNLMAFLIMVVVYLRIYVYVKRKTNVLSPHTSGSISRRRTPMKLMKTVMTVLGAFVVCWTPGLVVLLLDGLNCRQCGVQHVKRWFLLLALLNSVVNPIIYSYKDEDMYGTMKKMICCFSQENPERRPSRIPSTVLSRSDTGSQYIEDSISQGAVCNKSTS
Method: as §1, §2
(§4) The X-intercept of the linear transformation is equal to the inverse log of the KI.
as §3

[3] = biological target: T2, LPP3 (PAP2b) (Homo sapiens, UniProt O14495); test: LPP inhibition, competition with [32P]LPA; format: biochemical; conditions: for rank order of inhibition of the three LPPs: LPP1 (PAP2a), LPP2 (PAP2c), LPP3 (PAP2b)
T2 sequence (O14495 1-311): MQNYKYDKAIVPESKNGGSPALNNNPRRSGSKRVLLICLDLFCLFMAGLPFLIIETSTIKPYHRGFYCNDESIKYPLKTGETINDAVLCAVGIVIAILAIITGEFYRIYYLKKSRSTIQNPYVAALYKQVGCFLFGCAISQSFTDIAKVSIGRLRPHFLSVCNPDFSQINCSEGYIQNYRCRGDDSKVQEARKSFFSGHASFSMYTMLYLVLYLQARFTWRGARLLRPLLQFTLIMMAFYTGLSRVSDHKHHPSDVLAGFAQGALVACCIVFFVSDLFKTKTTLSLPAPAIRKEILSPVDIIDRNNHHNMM
Method: NOHPP was also tested for activity at the three cloned LPPs. Although the phosphonate head group eliminates the possibility of NOHPP acting as a substrate, it is possible that the compound could be a competitive inhibitor.

[4] = biological target: mouse LPA1 (Mus musculus, UniProt P61793); test: GTP[γ35S] binding, LPA1-transfected HEK293T (or RH7777) cell membranes; format: biochemical; design: expressed in transfected cells; host or cells: HEK293T (transient); for part of the results RH7777 membranes
Sequence of mouse LPA1 (P61793 whole entry): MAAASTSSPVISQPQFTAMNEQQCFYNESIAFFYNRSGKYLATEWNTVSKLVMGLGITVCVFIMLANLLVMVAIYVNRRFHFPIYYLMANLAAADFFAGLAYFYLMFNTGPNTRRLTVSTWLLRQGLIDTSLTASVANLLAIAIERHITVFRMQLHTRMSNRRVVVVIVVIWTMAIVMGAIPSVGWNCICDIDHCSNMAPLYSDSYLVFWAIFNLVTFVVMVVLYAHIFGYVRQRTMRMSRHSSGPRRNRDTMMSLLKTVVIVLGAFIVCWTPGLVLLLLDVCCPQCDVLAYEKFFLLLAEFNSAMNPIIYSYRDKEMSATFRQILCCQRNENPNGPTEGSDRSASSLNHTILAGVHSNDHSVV
Method: as §1, §2, §4, §3

[5] = test system: human platelets; conditions: previously reported; cited from earlier work
[6] = test system: Xenopus laevis ooctyes; conditions: previously reported; cited from earlier work
[7] = test system: LPA receptors; test: whole cell assays of calcium mobilization or inhibition of cAMP accumulation, agonist activity; format: cell-based
Method: Assays for cAMP accumulation were conducted on populations of 5×10^5 cells stimulated with […] in the presence of the phosphodiesterase inhibitor isomethylbutylxanthine (IBMX) for 15 minutes at 30° C. cAMP was measured by automated radioimmunoassay.
A FLIPR™ (Molecular Devices, Inc.) was used to measure intracellular calcium in A431 and HEK293T cells. A431 cells were seeded (˜50,000 cells/well) in 96-well clear bottom black microplates (Corning Costar Corp., Cambridge, Mass.) and left overnight in CO2 incubator at 37° C. HEK293T cells were treated likewise, but seeded onto poly D-lysine coated microplates (Becton Dickinson, Franklin Lakes, N.J.). A431 cells were dye-loaded with 4 μM Fluo-3 AM ester (Molecular Probes Inc., Eugene, Oreg.) in a loading buffer (1×HBSS buffer, pH 7.4, containing 20 mM HEPES, 0.1% BSA, and 2.5 mM probenecid) for 1 hour at 37° C. Cells were then washed four times with the loading buffer and exposed in the FLIPR™ to sets of compounds. HEK293T cells were loaded with 2 μM Fluo-4 AM ester (Molecular Probes Inc., Eugene, Oreg.) in the same loading buffer without probenecid for 30 minutes and washed four times before being exposed to compounds in the FLIPR™. In all cases, each concentration of each compound was tested in at least quintuplicate.

[8] = block of LPA-induced GTP[γ35S] binding
[9] = efficacy compared to LPA (LPA = 100)

EC50 ([1]; GTP[γ35S] binding): 0.0068 µM
EC50 ([2]; GTP[γ35S] binding): 0.263 µM
LP A3 Emax [2]: 100
Molecule: 1-acyl, 2-hydroxyl-sn-glycerol-3-phosphate [LPA, reference compound]

rank order of inhibition of the three LPPs [3]: LPP3>LPP1>>LPP2
inhibition of LPP3 ([3]; NOHPP in competition with 50 nM [32P]LPA): inhibited
Molecule: CCCCCCCC/C=C\CCCCCCCC(=O)NCCC(O)P(=O)(O)O (racemic) [NOHPP, (9Z)-N-(rac-3-hydroxy-3-phosphonopropyl)octadec-9-enamide]
rank order of inhibition of the three LPPs ([3]; listed as VPC12031): markedly better at the PAP2b (LPP3) than PAP2a (LPP1) which in turn is better than PAP2c (LPP2)
agonist activity / efficacy relative to LPA at LPA2 ([1]; GTP[γ35S] binding): as efficacious as; also recorded: fullly efficacious
agonist potency relative to LPA at LPA2 ([1]; GTP[γ35S] binding): somewhat less potent than; also recorded: about one log order less potent
agonist activity / efficacy relative to LPA at LPA3 ([2]; GTP[γ35S] binding): far less efficacious; also recorded: little activity
agonist potency relative to LPA at LPA3 ([2]; GTP[γ35S] binding): distinctly less potent; also recorded: greater than two log orders less potent
agonist activity / efficacy relative to LPA at LPA1 ([4]; GTP[γ35S] binding): as efficacious as; also recorded: fullly efficacious
agonist potency relative to LPA at LPA1 ([4]; GTP[γ35S] binding): somewhat less potent than; also recorded: about one log order less potent

Molecule: CCCCCCCCCCCCCCCC(=O)N[C@@H](COP(=O)(O)O)C(=O)O [NASPA, N-palmitoyl serine phosphate]
platelet aggregation (literature) [5]: antagonize
oocyte depolarization (literature) [6]: antagonize

Molecule: CCCCCCCCCCCCCCCC(=O)N[C@@H](CCCC)COP(=O)(O)O [PNPA, N-palmitoyl-norleucinol-1-phosphate]
platelet aggregation (literature) [5]: aggregates human platelets without regard to stereoselectivity

antagonist activity at LPA1 [4, 8]: did block LPA activity
Molecule: CCCCCCCC/C=C\CCCCCCCC(=O)N[C@@H](COP(=O)(O)O)Cc1ccccc1 [VPC12084]
agonist activity in whole cell assays [7]: appreciable agonist activity

Molecule: CCCCCCCC/C=C\CCCCCCCC(=O)N[C@H](C)COP(=O)(O)O [VPC12086]
agonist potency relative to LPA at LPA1 ([4]; GTP[γ35S] binding): more potent than 1-oleoyl LPA; also recorded: more potent and efficacious than LPA

EC50 ([1]; GTP[γ35S] binding): 4.28 µM
LP A2 Emax [1, 9]: 85.6
EC50 ([2]; GTP[γ35S] binding): 4.98 µM
LP A3 Emax [2]: 89.3
EC50 ([4]; agonist activity, GTP[γ35S] binding, read-out: LP A1 EC50): 1.58 µM
LP A1 Emax [4, 9]: 62.3
Molecule: CCCCCCCC/C=C\CCCCCCCC(=O)N[C@@H](CC)COP(=O)(O)O [VPC12115]

agonist potency relative to LPA at LPA1 ([4]; GTP[γ35S] binding): more potent than 1-oleoyl LPA
Molecule: CCCCCCCC/C=C\CCCCCCCC(=O)N[C@H](CN)COP(=O)(O)O [VPC12178]

agonist potency relative to LPA at LPA1 ([4]; GTP[γ35S] binding): more potent than 1-oleoyl LPA
Molecule: CCCCCCCC/C=C\CCCCCCCC(=O)N[C@H](CO)COP(=O)(O)O [VPC31143]

antagonist activity at LPA2 [1, 8]: antagonist activity
agonist activity / efficacy relative to LPA at LPA3 ([2]; GTP[γ35S] binding): agonist
agonist activity / efficacy relative to LPA at LPA1 ([4]; GTP[γ35S] binding): agonist
Molecule: CCCCCCCC/C=C\CCCCCCCC(=O)N[C@@H](COP(=O)(O)O)Cc1ccc(OCc2ccc(CCCCC)cc2)cc1 [VPC31162]
